Data on 2 compounds can be found in patent US12492373B2, “Production method for nerve tissue” (Racthera Co., Ltd., priority 2014, dated 2025).

Holding throughout (type): cell-based
Experiment [1] concerns human iPS cells (1231A3 strain). Description: Form of cell aggregate in suspension culturing, bright field observation (good / medium / bad form). To be noted: for cell aggregates with a bad form (not spherical, collapsed) / cell aggregates with a good form (spherical, smooth surface and dense inside) / cell aggregates with a medium form (spherical, forming cyst): day 6. Here is the method: (§1) The above human iPS cells were treated with the cell dispersion solution by using TrypLE Select (Life Technologies), further dispersed into single cells by pipetting operation, and the above human iPS cells dispersed into single cells were suspended in 100 μl of a serum-free medium at 1.2×10^4 cells per well of a non-cell-adhesive 96-well culture plate (PrimeSurface 96V-bottom plate, manufactured by SUMITOMO BAKELITE), and subjected to suspension culturing at 37° C., 5% CO2. As the serum-free medium (gfCDM+KSR) therefor, a serum-free medium which is a 1:1 mixture of F-12 medium and IMDM medium supplemented with 10% KSR, 450 μM 1-monothioglycerol, and 1× Chemically defined lipid concentrate was used. At the time of the start of suspension culturing (day 0 after the start of suspension culturing, start of step 2), Y27632 (final concentration 20 μM) was added to the above serum-free medium. By day 2 after the start of suspension culturing, a cell aggregate was formed under both preconditioning conditions and conditions without preconditioning (step 2 completed, step 3 start). On day 3 after the start of suspension culturing, a serum-free medium (50 μl) free of Y27632 was added.
The thus-prepared cells on day 6 after the start of suspension culturing were subjected to bright field observation under an inverted microscope (KEYENCE) (FIG. 3).
Furthermore, bright field observation of the form of the cell aggregate on day 6 after the start of suspension culturing was performed under an inverted microscope, and the form was categorized into good form (FIG. 3C black bar, spherical, smooth surface and dense inside), medium form (FIG. 3 gray bar, spherical, forming cyst), and bad form (FIG. 3C white bar, not spherical, collapsed) and quantified.
as §1, with “μM 1-monothioglycerol, 1× Chemically” for “μM 1-monothioglycerol, and 1× Chemically”, “20 μM) and TGFβR inhibitor (SB431542, 5 μM) were added to” for “20 μM) was added to”, “of Y27632 and supplemented with a TGFβR inhibitor (SB431542, 5 μM) was added.” for “of Y27632 was added.”
The form of the thus-prepared cell aggregates on day 6 after the start of suspension culturing was observed according to the method described in Example 3.
The above human iPS cells were treated with the cell dispersion solution by using TrypLE Select (Life Technologies), further dispersed into single cells by pipetting operation, and the above human iPS cells dispersed into single cells were suspended in 100 μl of a serum-free medium at 1.2×10^4 cells per well of a non-cell-adhesive 96-well culture plate (PrimeSurface 96V-bottom plate, manufactured by SUMITOMO BAKELITE), and subjected to suspension culturing at 37° C., 5% CO2. As the serum-free medium (gfCDM+KSR) therefor, a serum-free medium which is a 1:1 mixture of F-12 medium and IMDM medium supplemented with 10% KSR, 450 μM 1-monothioglycerol and 1× Chemically defined lipid concentrate was used. […]

The test system is the same in experiment [2]. Description: Immunostaining of aggregate sections for neural tissue markers Nestin, TuJ1, PSA-NCAM. The source says:
Furthermore, cell aggregates on day 23 after the start of suspension culturing, which were produced from the above iPS cells that underwent a preconditioning treatment as a starting material (conditions of FIG. 5B) were fixed with 4% para-formaldehyde to prepare frozen sections. […] Furthermore, it could be confirmed from the analysis of serial sections, that the regions that could be determined to be neural tissue by morphology observation in the bright field under an inverted microscope were Nestin-positive, TuJ1-positive, and PSA-NCAM-positive (FIG. 5C-E).
Furthermore, the above cell aggregates on day 23 after the start of suspension culturing, which were produced from the above iPS cells that underwent a preconditioning treatment with TGFβR inhibitor (SB431542) or BMPR inhibitor (LDN193189) as a starting material were fixed with 4% para-formaldehyde to prepare frozen sections. […] Furthermore, it could be confirmed from the analysis of serial sections, that the regions that could be identified to be neural tissue by morphology observation in the bright field images were Nestin-positive, TuJ1-positive, and PSA-NCAM-positive (FIG. 8A-F).
Cell aggregates were prepared according to the method described in Example 10 by using, as a starting material, human iPS cells using Essential 8 medium as a feeder-free culturing, TGFβR inhibiting substance (SB431542) in step 1, and a Shh signal transduction pathway activating substance in step 2. The cell aggregates on day 18 after the start of suspension culturing were fixed with 4% para-formaldehyde to prepare frozen section. […] Furthermore, it could be confirmed from the analysis of serial sections, that the regions that could be identified to be neural tissue by morphology observation in the bright field images were Nestin-positive, TuJ1-positive, and PSA-NCAM-positive (FIG. 11).

Experiment [3] has the same test system. Description: Form of cell aggregate in suspension culturing, bright field observation (good / medium / bad form). To be noted: step 1 for 1 day: SB431542 5 μM or LDN193189 100 nM; day 9.
[4] abbreviates: SB431542 5 μM in step 1 and in step 2 and step 3.
Setting [5] is: no preconditioning in step 1, SB431542 5 μM added in step 2 and step 3.
Where [6] appears, read: Essential 8 medium, SB431542 in step 1, SAG in step 2, day 18.
The mark [7] stands for this setting: SB431542 5 μM or LDN193189 100 nM in step 1, SAG 300 nM in step 2, StemFit, day 23.
[8] abbreviates: LDN193189 100 nM in step 1, no SAG in step 2, StemFit, day 23.

As for `NC(=O)c1ccc(-c2nc(-c3ccc4c(c3)OCO4)c(-c3ccccn3)[nH]2)cc1` [SB431542, 4-(5-benzol[1,3]dioxol-5-yl-4-pyridin-2-yl-1H-imidazol-2-yl)-benzamide], the “shape of cell aggregate compared with no preconditioning” value in experiment [1] (SB431542 5 μM 1 day in step 1, day 6 of suspension culturing) was “better shape”. For the same compound, in experiment [1] (setting [4]), the “cell aggregates with a bad form (not spherical, collapsed)” value is recorded as “about 0%”; the “cell aggregates with a good form (spherical, smooth surface and dense inside)” value (from here on “cell aggregates with a good form”) is reported as “about 100%”; the “cell aggregates with a medium form (spherical, forming cyst)” value (shortened to “cell aggregates with a medium form”) is recorded as “about 0%”. Besides, in experiment [1] (SB431542 5 μM in step 1 only), the “cell aggregates with a bad form (not spherical, collapsed)” value is given as “about 0%”; the “cell aggregates with a good form” value is on record as “about 100%”; the “cell aggregates with a medium form” value was “about 0%”. In addition, in experiment [1] (setting [5]), the “cell aggregates with a bad form (not spherical, collapsed)” value is “about 30%”; the “cell aggregates with a good form” value is listed as “about 10%”; the “cell aggregates with a medium form” value is recorded as “about 60%”. For the same compound, in experiment [2] (setting [6]), the “proportion of Nestin-positive cells in the total cells” value (“proportion of Nestin-positive cells” below) is listed as “about 30%”, the “proportion of PSA-NCAM-positive cells” value is reported as “about 70%” and the “proportion of TuJ1-positive cells in the total cells” value (“proportion of TuJ1-positive cells” for short) is “about 70%”. Also, in experiment [2] (setting [7]), the “proportion of Nestin-positive cells” value is listed as “about 20%”, the “proportion of PSA-NCAM-positive cells” value is on record as “about 70%” and the “proportion of TuJ1-positive cells” value is reported as “about 70%”. Besides, in experiment [3], the “shape of cell aggregate in step 3 compared with untreated group” value is “good shape of cell aggregate”.
On to `c1ccc2c(-c3cnn4cc(-c5ccc(N6CCNCC6)cc5)cnc34)ccnc2c1` [LDN193189, 4-[6-(4-piperazin-1-ylphenyl)pyrazolo[1,5-a]pyrimidin-3-yl]quinoline], for which, in experiment [2] (setting [8]), the “proportion of Nestin-positive cells” value was “about 20%”, the “proportion of PSA-NCAM-positive cells in the total cells” value is reported as “about 70%” and the “proportion of TuJ1-positive cells” value is listed as “about 70%”. In experiment [2] (setting [7]), the “proportion of Nestin-positive cells” value is “about 20%”, the “proportion of PSA-NCAM-positive cells” value is “about 70%” and the “proportion of TuJ1-positive cells” value is recorded as “about 70%”. Moreover, the “shape of cell aggregate in step 3 compared with untreated group” value in experiment [3] is on record as “good shape of a cell aggregate”.
